Assay results taken from US20250144067A1, “PERSONALIZED STARVATION THERAPY FOR CANCER” (Faeth Therapeutics, Inc., priority 2021, published 2025).
Structures can show the parent of a compound that is named as a salt.

Key:
[1] = tested on: NCI-H292 lung cancer cells; test: FDA drug screening, complete media vs cholesterol-free media without statin (TABLE 1); format: cell-based, human
[2] = tested on: NCI-H292 lung cancer cells; test: FDA drug screening, complete media vs cholesterol-free media with simvastatin (TABLE 2); format: cell-based, human; conditions: for Cholesterol-free media + simvastatin (0.04 μM) / Complete Media: NCI-H292 cells
[3] = Complete minus Cholesterol-free, greater than 0 enhanced anti-cancer activity, about 0 neutral, below 0 antagonist
[4] = NCI-H292 cells, FDA drug library screen, cholesterol-free media without statin
[5] = NCI-H292 cells, FDA drug library screen, complete media
[6] = FDA drug library screen, cholesterol-free media with simvastatin 0.04 μM
[7] = FDA drug library screen, complete media
[8] = NCI-H292 cells, cholesterol-free media without statin, FDA drug library screen
[9] = NCI-H292 cells, complete media, FDA drug library screen
[10] = complete vs cholesterol-free media, >0 enhanced anti-cancer activity, about 0 neutral, <0 antagonist
[11] = drug in cholesterol-free media with simvastatin 0.04 μM
[12] = complete media vs cholesterol-free media + simvastatin (0.04 μM), >0 enhanced anti-cancer activity, about 0 neutral, <0 antagonist
[13] = Complete minus Cholesterol-free, […]
[14] = cholesterol-free media with simvastatin 0.04 μM, FDA drug library screen (TABLE 2)
[15] = complete media, FDA drug library screen (TABLE 2)
[16] = complete media minus cholesterol-free media + simvastatin (0.04 μM), […]
[17] = Complete minus Cholesterol-free, >0 enhanced anti-cancer activity, about 0 neutral, <0 antagonist
[18] = NCI-H292 cells, cholesterol-free media without statin
[19] = complete vs cholesterol-free media, greater than 0 enhanced anti-cancer activity, about 0 neutral, below 0 antagonists

| Compound | Cholesterol-free [1, 4] | Complete [1, 5] | Cholesterol-free media + simvastatin (0.04 μM) [2, 6] | Complete Media [2, 7] | Cholesterol-free [1, 8] | Complete [1, 9] | Cholesterol-free media + simvastatin (0.04 μM) [2, 11] | Complete Media ([2]; drug in complete media) | Difference [2, 12] | other results |
| --- | --- | --- | --- | --- | --- | --- | --- | --- | --- | --- |
| CC[C@H](C)C(=O)O[C@H]1C[C@@H](C)C=C2C=C[C@H](C)[C@H](CC[C@@H]3C[C@@H](O)CC(=O)O3)[C@H]21 [Lovastatin] | 0.7089 | 0.603 | 0.5184 | 0.7992 |  |  |  |  |  | Difference [1, 3]: −0.11; Difference ([2]; complete media minus cholesterol-free media + simvastatin, >0 enhanced anti-cancer activity, about 0 neutral, <0 antagonist): 0.28 |
| N[C@@H](Cc1c[nH]c2ccccc12)C(=O)O [L-Tryptophan] |  |  |  |  | 1.009 | 1.103 | 1.157 | 0.9202 | −0.24 | Difference [1, 10]: 0.09 |
| C[N+](C)(C)C[C@H](O)CC(=O)[O-] [L-Carnitine] | 1.053 | 0.9402 | 0.9127 | 0.8221 |  |  |  |  | −0.09 | Difference [1, 3]: −0.11 |
| Cc1coc2c1C(=O)C(=O)c1c-2ccc2c(C)cccc12 [Tanshinone I] | 0.8572 | 0.783 |  |  |  |  |  |  |  | Difference [1, 13]: −0.07; Cholesterol-free media + simvastatin (0.04 μM) [2, 14]: 0.9012; Complete Media [2, 15]: 0.8645; Difference [2, 16]: −0.04 |
| N#CC[C@H](C1CCCC1)n1cc(-c2ncnc3[nH]ccc23)cn1 [Ruxolitinib (S enantiomer)] |  |  |  |  |  |  | 0.9634 | 0.7007 | −0.26 | Difference ([1]; Complete minus Cholesterol-free, greater than 0 enhanced anti-cancer activity, about 0 neutral, below 0 antagonists): −0.48; Cholesterol-free ([1]; NCI-H292 cells in cholesterol-free media without statin): 1.03; Complete ([1]; NCI-H292 cells in complete media): 0.5541 |
| C#CCC(Cc1cnc2nc(N)nc(N)c2n1)c1ccc(C(=O)N[C@@H](CCC(=O)O)C(=O)O)cc1 (stereo partly drawn) [Pralatrexate] |  |  | 0.194 | 0.0957 | 0.04874 | 0.07794 |  |  | −0.10 | Difference [1, 17]: 0.03 |
| O=C1C(CC[S+]([O-])c2ccccc2)C(=O)N(c2ccccc2)N1c1ccccc1 (stereo not drawn) [Sulfinpyrazone] |  |  |  |  |  |  | 1.076 | 0.9093 | −0.17 | Cholesterol-free [1, 18]: 1.3; Complete ([1]; NCI-H292 cells, complete media): 0.9417; Difference [1, 19]: −0.36 |
| CC(=O)OCC[N+](C)(C)C.[Cl-] [Acetylcholine (chloride)] |  |  |  |  | 1.32 | 1.724 | 0.9864 | 0.8029 | −0.18 | Difference [1, 10]: 0.40 |
| CNCC(=O)N[C@@H](CCCN=C(N)N)C(=O)N[C@H](C(=O)N[C@@H](Cc1ccc(O)cc1)C(=O)N[C@H](C(=O)N[C@@H](Cc1cnc[nH]1)C(=O)N1CCC[C@H]1C(=O)N[C@@H](C)C(=O)O)C(C)C)C(C)C [Saralasin (TFA)] |  |  |  |  | 1.11 | 1.396 |  |  |  | Difference ([1]; complete vs cholesterol-free media, […]): 0.29; Cholesterol-free media + simvastatin (0.04 μM) ([2]; cholesterol-free media with simvastatin 0.04 μM, […]): 0.7862; Complete Media ([2]; complete media, […]): 0.8195; Difference ([2]; complete media minus cholesterol-free media + simvastatin, […]): 0.03 |
| COc1ccc(CN2CCNCC2)c(OC)c1OC [Trimetazidine (dihydrochloride)] |  |  |  |  |  |  | 1.296 | 1.112 | −0.18 | Difference [1, 17]: −0.30; Cholesterol-free [1, 18]: 1.134; Complete ([1]; NCI-H292 cells, complete media): 0.836 |
| CCC1=C(C)CN(C(=O)NCCc2ccc(S(=O)(=O)NC(=O)N[C@H]3CC[C@H](C)CC3)cc2)C1=O [Glimepiride] |  |  |  |  |  |  | 0.9904 | 0.7847 | −0.21 | Cholesterol-free [1, 18]: 1.246; Complete ([1]; NCI-H292 cells, complete media): 0.8316; Difference [1, 19]: −0.41 |
| Nc1ccc(S(=O)(=O)Nc2ccnn2-c2ccccc2)cc1 [Sulfaphenazole] | 1.174 | 0.9989 | 1.123 | 1.024 |  |  |  |  | −0.10 | Difference [1, 3]: −0.18 |
| Nc1nc(F)nc2c1ncn2[C@@H]1O[C@H](CO)[C@@H](O)[C@@H]1O [Fludarabine] | 1.174 | 1.022 |  |  |  |  |  |  |  | Difference [1, 13]: −0.15; Cholesterol-free media + simvastatin (0.04 μM) [2, 14]: 1.255; Complete Media [2, 15]: 1.187; Difference [2, 16]: −0.07 |
